Patent publication US20030186817A1, “SUBSTITUTED 2,4-DIAMINO-1,3,5-TRIAZINES, PROCESSES FOR THEIR PREPARATION AND THEIR USE AS HERBICIDES AND PLANT GROWTH REGULATORS” (priority 1998, published 2003)

Assays:
[1] = system: Stellaria media, Amaranthus retroflexus, Sinapis avreuse, Avena fatura, Lolium multiflorum and Setaria viridis; assay: Pre-emergence action against weeds (greenhouse pot test, visual rating); format: in vivo; conditions: application rate of 3.0 kg or less of active substance per hectare, trial period of 3 to 4 weeks
Excerpt: Seeds of mono- and dicotyledonous weed plants are placed in sandy loam soil in cardboard pots and covered with soil. The novel compounds, formulated as wettable powders or emulsion concentrates, are then applied to the surface of the soil cover in the form of an aqueous suspension or emulsion at an application rate of from 600 to 800 l of water/ha (converted), in various dosages. After the treatment, the pots are placed in a greenhouse and kept under good growth conditions for the weeds. After the test plants have emerged after a trial period of 3 to 4 weeks, the damage to the plants or the negative effect on emergence is rated visually by comparison with untreated controls. As shown by the test results, the novel compounds have good herbicidal pre-emergence activity against a broad spectrum of weed grasses and broad-leaved weeds.

[2] = system: Stellaria media, Amaranthus retroflexus, Sinapis avreuse, Avena fatura, Lolium multiflorum and Setaria viridis; assay: Post-emergence action against weeds (greenhouse pot test, visual rating); format: in vivo; conditions: three-leaf stage, application rate of 3.0 kg or less of active substance per hectare, 3 to 4 weeks in greenhouse
Procedure: Seeds of mono- and dicotyledonous weeds are placed in sandy loam soil in cardboard pots, covered with soil and cultivated in a greenhouse under good growth conditions. Two to three weeks after sowing, the test plants are treated at the three-leaf stage. The novel compounds, formulated as wettable powders or emulsion concentrates, are sprayed in various dosages onto the green parts of the plant at an application rate of from 600 to 8001 of water/ha (converted), and, after the test plants have remained in the greenhouse for 3 to 4 weeks under optimum growth conditions, the action of the preparations is rated visually by comparison with untreated controls. The novel compositions also have good post-emergence herbicidal activity against a broad spectrum of economically important weed grasses and broad-leaved weeds.

SMILES | herbicidal activity pre-emergence (damage to the plants or negative effect on emergence, rated visually) [1] | herbicidal activity post-emergence (rated visually) [2]
CCC(COCCOc1ccccc1)Nc1nc(N)nc(C(C)(C)F)n1 (stereo not drawn) [Example 1344] | good and in most cases very good herbicidal activity | good and in most cases very good herbicidal activity
CCC(COCCOc1ccccc1)Nc1nc(N)nc(C(C)F)n1 (stereo not drawn) [Example 1346] | good and in most cases very good herbicidal activity | good and in most cases very good herbicidal activity
CCC(COCCOc1cccc(Cl)c1)Nc1nc(N)nc(C(C)(C)F)n1 (stereo not drawn) [Example 1364] | good and in most cases very good herbicidal activity | good and in most cases very good herbicidal activity
CC(CCCOc1ccccc1)Nc1nc(N)nc(C(C)(C)F)n1 (stereo not drawn) [Example 501] | good and in most cases very good herbicidal activity | good and in most cases very good herbicidal activity
CC(C)(F)c1nc(N)nc(NC(CCCCOc2ccccc2)C2CC2)n1 (stereo not drawn) [Example 636] | good and in most cases very good herbicidal activity | good and in most cases very good herbicidal activity
Cc1cc(C)cc(OCCC(C)Nc2nc(N)nc(C(C)C)n2)c1 (stereo not drawn) [Example 339] | good and in most cases very good herbicidal activity | 
Cc1cc(C)cc(CON=CCNc2nc(N)nc(C(C)F)n2)c1 (stereo not drawn) [Example 1234] | good and in most cases very good herbicidal activity | good and in most cases very good herbicidal activity
CCCc1nc(N)nc(NC(C)COCCOc2ccccc2)n1 (stereo not drawn) [Example 1404] | good and in most cases very good herbicidal activity | good and in most cases very good herbicidal activity
CC(CCCOc1ccccc1)Nc1nc(N)nc(C(C)C)n1 (stereo not drawn) [Example 531] | good and in most cases very good herbicidal activity | good and in most cases very good herbicidal activity
CCC(CCOc1cc(F)cc(F)c1)Nc1nc(N)nc(C(C)C)n1 (stereo not drawn) [Example 305] | good and in most cases very good herbicidal activity | good and in most cases very good herbicidal activity
CCCc1nc(N)nc(NC(CC)CCCCOc2ccccc2)n1 (stereo not drawn) [Example 618] | good and in most cases very good herbicidal activity | good and in most cases very good herbicidal activity
CC(COC(=O)c1cccc(C(F)(F)F)c1)Nc1nc(N)nc(C(C)C)n1 (stereo not drawn) [Example 78] | good and in most cases very good herbicidal activity | good and in most cases very good herbicidal activity
Cc1cccc(OCCCC(C)Nc2nc(N)nc(C(C)(C)F)n2)c1 (stereo not drawn) [Example 502] | good and in most cases very good herbicidal activity | good and in most cases very good herbicidal activity
Cc1ccccc1C(=O)OCCNc1nc(N)nc(C(C)C)n1 [Example 43] |  | good and in most cases very good herbicidal activity
CC(COCc1ccc(Cl)cc1)Nc1nc(N)nc(C(C)(C)F)n1 (stereo not drawn) [Example 167] | good and in most cases very good herbicidal activity | 
CCC(COC(=O)c1ccc(F)cc1Cl)Nc1nc(N)nc(C(C)C)n1 (stereo not drawn) [Example 23] |  | good and in most cases very good herbicidal activity
Cc1cc(C)cc(CON=CCNc2nc(N)nc(C(C)C)n2)c1 [Example 1251] | good and in most cases very good herbicidal activity | good and in most cases very good herbicidal activity

SMILES | herbicidal activity pre-emergence (damage to the plants or negative effect on emergence, rated visually) [1] | herbicidal activity post-emergence (rated visually) [2]
CC(F)c1nc(N)nc(NC(CCCCOc2ccccc2)C2CC2)n1 (stereo not drawn) [Example 681] | good and in most cases very good herbicidal activity | good and in most cases very good herbicidal activity
CC(C)c1nc(N)nc(NCC(=O)NCc2ccccc2)n1 [Example 987] | good and in most cases very good herbicidal activity | good and in most cases very good herbicidal activity
CCc1nc(N)nc(NCC=NOCc2cc(C)cc(C)c2)n1 [Example 1235] | good and in most cases very good herbicidal activity | good and in most cases very good herbicidal activity
Cc1cccc(CNC(=O)C(C)Nc2nc(N)nc(C(C)C)n2)c1 (stereo not drawn) [Example 1005] | good and in most cases very good herbicidal activity | good and in most cases very good herbicidal activity
CC(C)(F)c1nc(N)nc(NC2CCCCC2COc2ccccc2)n1 (stereo not drawn) [Example 869] | good and in most cases very good herbicidal activity | good and in most cases very good herbicidal activity
CCC(CCCOc1cccc(C)c1)Nc1nc(N)nc(C(C)C)n1 (stereo not drawn) [Example 553] | good and in most cases very good herbicidal activity | good and in most cases very good herbicidal activity
Cc1cccc(OCCCC(C)Nc2nc(N)nc(C(C)F)n2)c1 (stereo not drawn) [Example 532] | good and in most cases very good herbicidal activity | good and in most cases very good herbicidal activity
Cc1cc(C)cc(COCC(C)Nc2nc(N)nc(C(C)(C)F)n2)c1 (stereo not drawn) [Example 64] | good and in most cases very good herbicidal activity | 
CCC(CCCCOc1ccccc1)Nc1nc(N)nc(C(F)(F)C(F)F)n1 (stereo not drawn) [Example 605] | good and in most cases very good herbicidal activity | good and in most cases very good herbicidal activity
CC(F)c1nc(N)nc(NC2CCCCC2COc2ccccc2)n1 (stereo not drawn) [Example 870] | good and in most cases very good herbicidal activity | good and in most cases very good herbicidal activity
CC(CCOc1cc(F)cc(F)c1)Nc1nc(N)nc(C(F)(F)C(F)F)n1 (stereo not drawn) [Example 297] | good and in most cases very good herbicidal activity | good and in most cases very good herbicidal activity
CC(COCc1cccc(Br)c1)Nc1nc(N)nc(C(C)(C)F)n1 (stereo not drawn) [Example 76] | good and in most cases very good herbicidal activity | 
Cc1cc(C)cc(OCCC(C)Nc2nc(N)nc(C(C)(C)F)n2)c1 (stereo not drawn) [Example 282] | good and in most cases very good herbicidal activity | 
CCCCc1ccc(C(=O)OCC(C)Nc2nc(N)nc(C(C)C)n2)cc1 (stereo not drawn) [Example 184] |  | good and in most cases very good herbicidal activity
CC(C)c1nc(N)nc(NCCOC(=O)c2ccccc2Cl)n1 [Example 20] |  | good and in most cases very good herbicidal activity
Cc1cc(C)cc(OCCC(C)Nc2nc(N)nc(C(F)(F)C(F)F)n2)c1 (stereo not drawn) [Example 329] | good and in most cases very good herbicidal activity | 
CC(C)c1nc(N)nc(NCCOC(=O)c2cccc(C(F)(F)F)c2)n1 [Example 80] |  | good and in most cases very good herbicidal activity
